Results taken from patent US9187458B2, “Cyanoquinoline derivatives” (Tianjin Hemay Bio-Tech Co., LTD., priority 2010, dated 2015).

How the values were obtained:
[1] = system: NCI-N87 cells; assay: NCI-N87 Cell Growth Inhibition Test (MTT Assay); type: cell-based; settings: Homo sapiens, 72 h incubation
Procedure: NCI-N87 Cell Growth Inhibition Test (MTT Assay)
1. Cell strains: NCI-N87 (human gastric carcinoma cell strains);
1. A plate (10 cm) of cells in logarithmic growth phase normally cultured was collected;
2. The culture solution was sucked out. The plate was washed wtih 5 ml of PBS 1-2 times;
3. PBS was sucked out. 1.5 ml of 0.25% pancreatin was added to infiltrate the cells for 1 min;
4. The pancreatin was sucked out. The culture plate was placed in an incubator. Digestion was carried out for about 12 min at 37° C.;
5. 4.5 ml of complete culture solution was added to the culture plate to stop the digestion. The cells were carefully scoured with micropipette (1 ml) to give a uniform cell suspension. The suspension was implanted into a 96-well cell culture disc by 17000 cells/100 μl per well. The culture plate was incubated overnight under 5% CO2 at 37° C. In day 2, 100 μl of culture solution comprising a compound was added in each well, and further incubated for 72 h under 5% CO2 at 37° C.
6. The culture solution was sucked out;
7. 100 μl of serum-free culture solution containing 0.5 mg/ml MTT was added in each well, and incubated for 3 h;
8. The culture solution was carefully sucked out;
9. 100 μl of DMSO was added in each welland vibrated to dissolve;
10. OD values were determined at 490 nM.
1. Calculation of Rrelative Inhibition Ratio The inhibition ratio of a compound on cell growth=(PC−n)/(PC−NC)×100%
IC50: Concentration of a compound where inhibition ratio was 50%. IC50 values were fitted with Origin7.5.

[2] = system: A549 cells; assay: A549 Cell Growth Inhibition Test (MTT Assay); type: cell-based; settings: Homo sapiens, 72 h incubation
How it was run: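 Human lung cancer A549 cells, seeded at 2500 cells per well, were exposed to compound for 72 h at 37° C., 5% CO2. Viability by MTT (0.5 mg/ml, 3 h), DMSO-dissolved, OD at 490 nm; IC50 fitted from inhibition ratio relative to controls.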

[3] = system: A431 cells; assay: A431 Cell Growth Inhibition Test (MTT Assay); type: cell-based, human; settings: for IC50 / inhibition at 1 µM: Homo sapiens; for IC50: A-431, 68 h incubation; for inhibition at 1 µM: A-431, 68 h, read-out: Growth Inhibition Ratio (%)
How it was run: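 Cells seeded at 2500/well in DMEM/F12 with 10% FBS, grown overnight, then exposed to compound for 68 h at 37 °C, 5% CO2. Viability by MTT (0.5 mg/ml, 4 h), DMSO-solubilised, OD 490 nm; IC50 is concentration giving 50% growth inhibition relative to controls.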

SMILES | IC50 [1] [nM] | IC50 [2] [nM] | IC50 [3] [nM] | Growth Inhibition Ratio (%) ([3]; compound 1 μM, 68 h incubation) | inhibition at 1 µM ([3]; compound 1 μM, 68 h incubation) [%]
CN(C)C/C=C/C(=O)Nc1cc2c(Nc3ccc(F)c(Cl)c3)c(C#N)cnc2cc1OC1CCOC1 (centres unmarked) [Example 4, (E)-N-(4-(3-CHLORO-4-FLUOROPHENYLAMINO)-3-CYANO-7-(TETRAHYDROFURAN-3-YL-OXY)QUINOLIN-6-YL)-4-(DIMETHYLAMINO)-BUT-2-ENAMIDE] | 79 | 1250 | 68 | 80 | –
CN(C)C/C=C/C(=O)Nc1cc2c(Nc3ccc(OCc4cccc(C#N)c4)c(Cl)c3)c(C#N)cnc2cc1OC1CCOC1 (centres unmarked) [Example 15, (E)-N-(4-(4-(3-CYANOBENZYLOXY)-3-CHLOROPHENYLAMINO)-3-CYANO-7-(TETRAHYDROFURAN-3-YL-OXY)QUINOLIN-6-YL)-4-(DIMETHYLAMINO)-BUT-2-ENAMIDE] | 7.1 | 3900 | 370 | – | 91
C#Cc1cccc(Nc2c(C#N)cnc3cc(O[C@H]4CCOC4)c(NC(=O)/C=C/CN(CC)CC)cc23)c1 [Example 143, (S,E)-N-(3-CYANO-4-(3-ETHYNYLPHENYLAMINO)-7-(TETRAHYDROFURAN-3-YL-OXY)QUINOLIN-6-YL)-4-(DIETHYLAMINO)-BUT-2-ENAMIDE] | 89 | 1500 | 59 | – | 70
Cc1ccc(COc2ccc(Nc3c(C#N)cnc4cc(OC5CCOC5)c(NC(=O)/C=C/CN(C)C)cc34)cc2Cl)cc1 (centres unmarked) [Example 19, (E)-N-(4-(4-(4-METHYLBENZYLOXY)-3-CHLOROPHENYLAMINO)-3-CYANO-7-(TETRAHYDROFURAN-3-YL-OXY)QUINOLIN-6-YL)-4-(DIMETHYLAMINO)-BUT-2-ENAMIDE] | 32 | 2000 | 390 | – | –
CN(C)C/C=C/C(=O)Nc1cc2c(Nc3ccc(OCc4ccccc4C#N)c(Cl)c3)c(C#N)cnc2cc1OC1CCOC1 (centres unmarked) [Example 13, (E)-N-(4-(4-(2-CYANOBENZYLOXY)-3-CHLOROPHENYLAMINO)-3-CYANO-7-(TETRAHYDROFURAN-3-YL-OXY)QUINOLIN-6-YL)-4-(DIMETHYLAMINO)-BUT-2-ENAMIDE] | 4.4 | 1100 | 158 | – | 89
CN(C)C/C=C/C(=O)Nc1cc2c(Nc3ccc(OCc4ccccn4)c(Cl)c3)c(C#N)cnc2cc1OC1CCOC1 (centres unmarked) [Example 21, (E)-N-(4-(3-CHLORO-4-(PYRIDIN-2-YL-METHOXY)PHENYLAMINO)-3-CYANO-7-(TETRAHYDROFURAN-3-YL-OXY)QUINOLIN-6-YL)-4-(DIMETHYLAMINO)-BUT-2-ENAMIDE] | 6.8 | 900 | 81 | – | –
CN(C)C/C=C/C(=O)Nc1cc2c(Nc3ccc(OCc4cccc(Cl)c4)c(Cl)c3)c(C#N)cnc2cc1OC1CCOC1 (centres unmarked) [Example 11, (E)-N-(4-(4-(3-CHLOROBENZYLOXY)-3-CHLOROPHENYLAMINO)-3-CYANO-7-(TETRAHYDROFURAN-3-YL-OXY)QUINOLIN-6-YL)-4-(DIMETHYLAMINO)-BUT-2-ENAMIDE] | 11 | 1600 | 184 | – | –
CCN(CC)C/C=C/C(=O)Nc1cc2c(Nc3ccc(OCc4ccccn4)c(Cl)c3)c(C#N)cnc2cc1O[C@H]1CCOC1 [Example 150, (S,E)-N-(4-(3-CHLORO-4-(PYRIDIN-2-YL-METHOXY)PHENYLAMINO)-3-CYANO-7-(TETRAHYDROFURAN-3-YL-OXY)QUINOLIN-6-YL)-4-(DIETHYLAMINO)-BUT-2-ENAMIDE] | 6.6 | 3800 | 27 | – | 84
C#Cc1cccc(Nc2c(C#N)cnc3cc(O[C@H]4CCOC4)c(NC(=O)/C=C/CNC(C)(C)C)cc23)c1 [Example 146, (S,E)-N-(3-CYANO-4-(3-ETHYNYLPHENYLAMINO)-7-(TETRAHYDROFURAN-3-YL-OXY)QUINOLIN-6-YL)-4-(TERT-BUTYLAIMINO)-BUT-2-ENAMIDE] | 189 | 7000 | 53 | – | –
C#Cc1cccc(Nc2c(C#N)cnc3cc(O[C@H]4CCOC4)c(NC(=O)/C=C/CN4CCCCC4)cc23)c1 [Example 144, (S,E)-N-(3-CYANO-4-(3-ETHYNYLPHENYLAMINO)-7-(TETRAHYDROFURAN-3-YL-OXY)QUINOLIN-6-YL)-4-(PIPERIDIN-1-YL)-BUT-2-ENAMIDE] | 98 | 1000 | 26 | – | –
